{"source": "BindingDB's records for doi:10.1002/cbic.201402650", "about": "(Goethe Universität Frankfurt, 2015)", "data": [{"target": "T1, Juvenile hormone epoxide hydrolase (Manduca sexta, UniProt Q25489)", "T1 sequence (Q25489 whole entry)": "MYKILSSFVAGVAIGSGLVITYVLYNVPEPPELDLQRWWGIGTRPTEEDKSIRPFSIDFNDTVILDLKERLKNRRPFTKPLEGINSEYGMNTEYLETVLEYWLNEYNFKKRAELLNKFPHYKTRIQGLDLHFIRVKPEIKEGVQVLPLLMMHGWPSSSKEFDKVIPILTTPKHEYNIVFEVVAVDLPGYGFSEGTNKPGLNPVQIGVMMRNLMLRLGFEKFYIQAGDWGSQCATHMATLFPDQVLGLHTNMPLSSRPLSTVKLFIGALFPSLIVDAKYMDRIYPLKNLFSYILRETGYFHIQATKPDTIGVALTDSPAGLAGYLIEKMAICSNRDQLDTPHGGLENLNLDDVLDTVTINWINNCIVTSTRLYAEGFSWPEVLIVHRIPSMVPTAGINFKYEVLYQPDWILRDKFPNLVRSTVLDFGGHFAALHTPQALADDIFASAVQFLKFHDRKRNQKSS", "test": "Quantitative Reverse Transcriptase Assay", "source_text": "We used quantitative reverse-transcriptase PCR to measure the RNA levels of certain AMP genes (lysozyme, gallerimycin, moricin and cecropin) in caterpillars of M. sexta and the greater waxmoth G. mellonella challenged with Serratia entomophila or Salmonella enterica, respectively, following injection of different urea lipid compounds.", "units": {"IC50": "µM"}, "values": [{"smiles": "CC(C)CCCCCCCCNC(N)=O", "note": "[N-(9-Methyldecyl) urea (2)]", "IC50": "> 100"}, {"smiles": "CC(C)CCCCCCCCCCNC(N)=O", "note": "[N-(11-Methyldodecyl) urea (5)]", "IC50": "> 100"}, {"smiles": "CCCCCCCCCCCCNC(N)=O", "note": "[N-Dodecyl urea (6)]", "IC50": "> 100"}, {"smiles": "CNC(=O)NCCCCCCCCC(C)C", "note": "[N-Methyl-N -(9-methyldecyl) urea (1)]", "IC50": 6.5}, {"smiles": "CNC(=O)NCCCCCCCCCCC(C)C", "note": "[N-Methyl-N -(11-methyldodecyl) urea (3)]", "IC50": 30}, {"smiles": "CCCCCCCCCCCCNC(=O)NC", "note": "[N-Methyl-N -dodecyl urea (4)]", "IC50": 10.7}, {"smiles": "CCCCCCCCCNC(=O)NC", "note": "[N-Methyl-N -nonyl urea (11)]", "IC50": "> 100"}, {"smiles": "CCCCCCCCCCCCCNC(=O)NC", "note": "[N-Methyl-N -tridecyl urea (9)]", "IC50": 10}, {"smiles": "CCCCCCCCCCCCCNC(N)=O", "note": "[N-Tridecyl urea (10)]", "IC50": "> 100"}, {"smiles": "CCCCCCCCCCCNC(=O)NC", "note": "[N-methyl-N -undecyl urea (7)]", "IC50": 4.3}, {"smiles": "CCCCCCCCCNC(N)=O", "note": "[N-nonyl urea (12)]", "IC50": "> 100"}, {"smiles": "CCCCCCCCCCCCNC(=O)NCC(C)C", "note": "[US8815951, 478]", "IC50": 2.3}]}]}
